Measurements published in patent US20260240999A1, “METHODS FOR EX VIVO ENRICHMENT AND EXPANSION OF TUMOR REACTIVE T CELLS AND RELATED COMPOSITIONS THEREOF” (H. LEE MOFFITT CANCER CENTER AND RESEARCH INSTITUTE, INC., priority 2022, published 2026).
Entries after “also recorded” stand apart in the source; their conditions may differ. Residues, ends and D or L forms follow the SMILES beside them. *: point of attachment. Cbz = O=C(OCc1ccccc1)*; CH2F = FC*

Columns and labels:
[1] = tested on: previously expanded human T cells from three healthy donors; test: Effect of T cell adjuvants on T cell viability (total viable CD3+ cell count); assay type: cell-based; conditions: for viable cell counts: vs DMSO treatment control, irrespective of activation status, 6 days
Experimental: Cells were expanded from PBMC derived from Ficoll gradient separation from three healthy donor's apheresis material. […] Because the studies were carried out in healthy donors, stimulation of the T cells was carried out with anti-CD3 (OKT3) stimulation in order to mimic conditions present in the tumor microenvironment (TME).
Cells were next seeded into gas permeable 100M culture vessels and expanded for 7-14 days to achieve a large bank of T cells, and cryopreserved. […] Half of wells were additionally supplemented with 50 ng/mL OKT3, a human anti-CD3 monoclonal antibody. In total, 15 test adjuvant agents were tested for their impact on cell viability in the presence and absence of anti-CD3 activation (see Table E3). Cells were cultured for 6 days total, including a 50% medium exchange on culture day 3, and monitored for total viable CD3+ cell count.

[2] = tested on: previously expanded human T cells from three healthy donors; test: Cytokines, modulators and agonist antibodies with IL-2 on T cell number and memory phenotype; assay type: cell-based
Experimental: PBMC from three healthy donors were activated, expanded, and cryopreserved as described in Example 11. […] As previously described, stimulation of the healthy donor T cells prior to cryopreservation were carried out with anti-CD3 (OKT3) stimulation in order to mimic conditions present in the tumor microenvironment (TME).
Cells were next seeded into gas permeable 100M culture vessels and expanded for 7-14 days to achieve a large bank of T cells, and cryopreserved.
Cells were maintained in culture for 6 days, with a 50% medium exchange occurring at 3 days post culture initiation.
At the end of the culture period for all culture conditions, cells were assessed for cell count and sub-phenotypes of naïve and central memory T cells by flow cytometry by staining with CD45RA and CCR7 (naïve, CD45RA+ CCR7+; “central” memory, CD45RA-CCR7+).

[3] = tested on: PBMC from two healthy donors; test: Checkpoint modulators and costimulatory agonist antibodies on T cell phenotype; assay type: cell-based, human
Experimental: Cells were then seeded into a 24-well gas permeable cell culture plate at a density of 5.0×10^5 cells/cm^2. Cells were activated for 48 hours using 50 ng/ml OKT3, a human anti-CD3 monoclonal antibody, and were additionally treated with agents as described below. Following 48 hours in culture, cells were analyzed for phenotype.
Cells were divided into 6 treatment groups, as follows: Ipilimumab (anti-CTLA4), Pembrolizumab (anti-PD1), Tavolixizumab (anti-TNFRSF4), Urelumab (anti-CD137), and Varlilumab (anti-CD27), as well as a no added agent control. For all test groups, cells in each treatment group were cultured in the presence of the monoclonal antibodies at 0.5, 1, 10, or 20 μg/mL.
None of the tested antibodies appeared to affect the memory differentiation state of the T cells. T cell phenotype was assessed for CD4+ and CD8+ cells independently via flow cytometry for markers of activation OX40, 41BB, CD107a, and PD1. Results are shown in FIG. 38 (CD3+), FIG. 39 (CD4+) and FIG. 40 (CD8+).

[4] = tested on: cells processed from melanoma tumor fragments; test: Anti-CD3 stimulation on expansion of tumor-derived cells; assay type: cell-based, human; conditions: presence or absence of 50 ng/mL OKT3; 14-31 days
Experimental: Cells processed from melanoma tumor fragments as described in Examples 1 and 2, were cultured in the presence or absence of 50 ng/mL OKT3, a human anti-CD3 monoclonal antibody. Cell cultures were carried out to between 14 and 31 days, such as between 14 and 21 days, in either a conventional 6-well plate or a gas permeable culture plate with RPMI or OpTmizer media. […] About 50% of cellular media was exchanged every other day beginning on the 5th day of culture as described previously. Cells were then counted using the NC-200 Automated Cell Counter (Chemometec).

[5] = tested on: T-cells from three healthy donors; test: Post-stimulation CD4+ and CD8+ activation markers by flow cytometry; assay type: cell-based, human; conditions: 50 ng/ml OKT3 vs no OKT3, 48 hours, CD38, CD39, CD134, CD137, CD69, CD90
Experimental: Specific markers of activation on the CD4+ and CD8+ cell populations were measured using flow cytometry over a time course of 3-48 hours. Specifically, the following markers were assessed: CD38 and CD39 (FIG. 12A and FIG. 13A), CD134 and CD137 (FIG. 12B and FIG. 13B), and CD69 and CD90 (FIG. 12C and FIG. 13C).

[6] = tested on: PBMC from three healthy donors; test: T cell expansion with Fas ligand or caspase inhibition, anti-CD3 stimulation; assay type: cell-based, human; conditions: OKT3 activation
Experimental: Cells were then seeded into a 24-well gas permeable cell culture plate at a density of 2.14×10^5 cells/mL (7.5×10^5 cells/cm^2). Cells were activated for 48 hours using 50 ng/ml OKT3, a human anti-CD3 monoclonal antibody, and were additionally treated with agents as described below.
Culture wells were assigned to one of five treatment groups, as follows: (1) a no inhibitor culture control which contained only cellular media as described with no additional apoptotic modulator; (2) 2 μM of the pan-caspase inhibitor Z-VAD-FMK added to the media only on culture day 0 (transient); (3) 2 μM of the pan-caspase inhibitor Z-VAD-FMK added on culture day 0 and additionally replenished at the same concentration with each media exchange (continuous); (4). 500 ng/ml of Fas ligand (FasL) blocking antibody NOK-1 (BioLegend) added to the culture media only on day 0 (transient); or (5) 500 ng/ml of Fas ligand (FasL) blocking antibody NOK-1 (BioLegend) added to the culture media […] replenished each media exchange (continuous inhibition).
Cultures were maintained for at least 13 days with a 50% media exchange every other day beginning on culture day 2. Cell counts and viability were monitored every other day. […]

[7] = tested on: PBMC from two healthy donors; test: T cell expansion with Fas ligand or caspase inhibition, anti-CD3/anti-CD28 stimulation; assay type: cell-based, human; conditions: continuous anti-CD3/anti-CD28 activation
Experimental: Cells were then seeded into a 24-well gas permeable cell culture plate at a density of 1.5×10^5 cells/mL (5.0×10^5 cells/cm^2).
Culture wells were assigned to one of two treatment groups, transient or continuous activation. For transient activation, anti-CD3/anti-CD28 paramagnetic beads (Dyanbeads™) were added to the culture media at a ratio of 1 bead per cell starting on culture day 0, and then were removed during media exchange on day 2. For continuous activation, anti-CD3/anti-CD28 paramagnetic beads (Dyanbeads™) were added to the culture media at a ratio of 1 bead per cell starting on culture day 0, and then added again on Day 4, and again on Day 6 at a ratio of 1 bead per cell. The anti-CD3/anti-CD28 paramagnetic beads were not removed on Day 2, 4 or 6.
For both the continuous and transient activation, culture wells were assigned to one of five treatment groups as described above for 10 conditions total per donor.
Cell counts and viability were monitored every other day. When cells reached 3×10^6 cells/ml, 1.5×10^6 cells were sub-cultured into a new well of a 24-well gas permeable culture plate with 7 mL final volume of medium and the culture continued as described above.

[8] = tested on: CRC tumor fragment and SCS cultures; test: Caspase inhibition in tumor processing; assay type: cell-based, human
Experimental: Half of cultures contained media additionally supplemented with 2 μM of pan-caspase inhibitor Z-VAD-FMK which was replenished at each media exchange. Cultures were incubated at about 37° C. for a minimum of 18 days with a 50% medium exchange occurring every 2-3 days following culture day 5. Cell counts were performed on day 5 and at each medium exchange using the NC-200 Automated Cell Counter (ChemoMetec).

[9] = cytokine plus 300 IU/mL IL-2 vs IL-2 alone
[10] = on CD3+, CD4+ and CD8+ T cells, higher concentrations

In the case of Oxelumab: anti-OX40L antibody, the viable cell counts [1] is reported as “consistently higher viable cell counts than the DMSO treatment control”, the “percent naïve and central memory T cells at Day 6” value ([2]; antibody plus IL-2 vs IL-2 alone, MK-1248 at highest concentration tested) is reported as “little effect on the percent of naïve and central memory T cells” and the “CD3+ cells/mL on Day 6” value ([2]; highest concentration tested, 50 μg/mL, vs IL-2 alone) is reported as “increase in CD3+ cells/mL on Day 6”.

For Pembrolizumab: anti-PD1 antibody, the viable cell counts [1] was “consistently higher viable cell counts than the DMSO treatment control” and the PD1 expression ([3]; on CD4 T cells) was “decreased PD1 expression”.

With “OKT3: a human anti-CD3 monoclonal antibody” the “total cell number and fold expansion” value [4] was “supported T cell expansion, but did not substantially impact total cell number; also recorded: observed to be largely similar”, the “upregulation of activation markers on CD8+ T cells” value ([5]; highest for CD38, CD134, CD69) was “all assessed markers were upregulated to some extent” and the “upregulation of activation markers on CD4+ T cells” value ([5]; highest for CD38, CD137, CD69) was “all assessed markers were upregulated to some extent”.

IL-21: recombinant cytokine was tested, and the “percent naïve and central memory T cells at Day 6” value ([2]; cytokine plus 300 IU/mL IL-2) was “measured increase in the percent naïve and central memory T cells” and the “CD3+ cells/mL on Day 6” value [2, 9] was “increase in CD3+ cells/mL on Day 6”.

COC(=O)C[C@H](NC(=O)[C@H](C)NC(=O)[C@@H](NC(=O)OCc1ccccc1)C(C)C)C(=O)CF [Z-VAD-FMK, carbobenzoxy-valyl-alanyl-aspartyl-[O-methyl]-fluoromethylketone] (Cbz-Val-Ala-Asp(OMe)-CH2F) was tested, and the viable cell counts [1] was “consistently higher viable cell counts than the DMSO treatment control”, the “cell growth (total cell number)” value ([6]; continuous inhibition (replenished each media exchange)) was “showed the greatest cell growth across donors” and the “cell growth (total cell number)” value ([6]; transient treatment (day 0 only)) was “grew similarly”. The “total viable cell number and viability” value ([7]; inhibitor continuous, listed as caspase inhibitor) was “outperformed the other conditions; also recorded: outperforming the transient condition”, the “total viable cell number and viability” value ([7]; inhibitor transient) was “outperformed the other conditions” and the cell viability ([8]; SCS culture, 2 μM) was “Cell viability was similarly high”. For the same molecule, the “outgrowth of T cells” value ([8]; SCS culture, 2 μM) was “outgrowth of T cells was not observed for the SCS conditions”, the cell viability ([8]; tumor fragment-derived culture, 2 μM) was “cell viability for this condition was also high” and the “outgrowth of cells (fold expansion, total viable cells)” value ([8]; tumor fragment-derived culture, 2 μM replenished at each media exchange) was “outgrowth of cells was superior in the tumor fragment-derived condition containing the pan-caspase inhibitor”. For the same molecule, the “number of CD3+ cells/mL on Day 6” value ([2]; concentrations higher than 0.2 μg/mL, vs IL-2 alone) was “substantially increased the number of CD3+ cells/mL on Day 6” and the “percent of naïve and central memory T cells” value ([2]; vs cultures expanded just with IL-2) was “had no effect on the percent of naïve and central memory T cells”.

With IL-15: recombinant cytokine the “dose response of cell number” value ([1]; 62.5 IU/ml-1000 IU/ml) was “dose dependent response, wherein cell number increased with increasing concentration”, the “percent naïve and central memory T cells at Day 6” value ([2]; cytokine plus 300 IU/mL IL-2) was “measured increase in the percent naïve and central memory T cells” and the “CD3+ cells/mL on Day 6” value [2, 9] was “increase in CD3+ cells/mL on Day 6”.

For “Varlilumab: an agonist anti-CD27 antibody”, the 41BB expression [3, 10] was “promoted 41BB and CD107a expression” and the CD107a expression [3, 10] was “promoted 41BB and CD107a expression”.

With “Urelumab: an agonist CD137 receptor antibody” the 41BB expression ([3]; on CD4 T cells and CD8+ T cells) was “promoted 41BB expression”.
